The values that follow come from paper PMC7181703, “Using proteolysis-targeting chimera technology to reduce navitoclax platelet toxicity and improve its senolytic activity” (Nature Communications, 2020).

Like-named read-outs stand apart in the source and are kept apart here.

What is called Ki is the equilibrium dissociation constant of an inhibitor or competing ligand from its target.

Test [1] has as its target T1, Bcl-w (Homo sapiens, UniProt Q92843).
T1 construct: gene BCL2L2; Purified recombinant His-tagged Bcl-w
T1 sequence (Q92843 2-193): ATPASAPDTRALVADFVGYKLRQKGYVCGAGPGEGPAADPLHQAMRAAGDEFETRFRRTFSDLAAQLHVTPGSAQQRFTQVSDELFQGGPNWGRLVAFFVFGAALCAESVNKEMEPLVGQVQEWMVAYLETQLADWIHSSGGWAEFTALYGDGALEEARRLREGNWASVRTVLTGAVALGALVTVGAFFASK
The experiment in a line: biochemical. Details: AlphaLISA competitive displacement of biotin-tagged BAD or BIM peptide from His-tagged Bcl-2 family protein. As to the method: Purified recombinant His-tagged Bcl-xl, His-tagged Bcl-2 and His-tagged Bcl-w (Cat. No. SRP0187 for Bcl-xl, Cat. No. SRP0186 for Bcl-2 and Cat. No. B1059 for Bcl-w, Sigma-Aldrich) were incubated with increasing concentrations of compounds and a fixed concentration of biotin-tagged BAD (Cat No. SQ-ASPE-66592-1, AnaSpec, Fremont, CA) (for Bcl-xl) or BIM (Cat. No. SQ-ASPE-66592-2, AnaSpec) (for Bcl-2 and Bcl-w) peptides to a final volume of 40 µL in 96-well PCR plates. After 24 h incubation, 5 µL 6X His-Acceptor beads (final concentration 20 µg/mL) (Cat. No. AL128M, Perkin-Elmer, Waltham, MA, USA) were added to each well and incubated for 1 h. Thereafter, 5 µL streptavidin-donor beads were added (final concentration of 20 µg/mL) (Cat. No. 6760002, Perkin-Elmer) to each well and incubated for 30 min. At the end of the incubation period, 17 µL of each sample was transferred into adjacent wells of 384-well proxy plate (Cat. No. 6008280, Perkin-Elmer). The plate was scanned using Alpha program on a Biotek’s Synergy Neo2 multi-mode plate reader (Winooski, VT, USA). Gen5 version 3.04 software (BioTek, USA) was used for the AlphaLISA signal measurements. The inhibition constant (Ki) was calculated using non-linear regression, one site, competitive binding, fit Ki function on GraphPad Prism 7 software based on experimentally determined Kd for each protein/peptide pair.

Test [2] concerns the target T2, Bcl-xl (Homo sapiens, UniProt Q07817).
T2 construct: gene BCL2L1; Purified recombinant His-tagged Bcl-xl
Description: AlphaLISA/AlphaScreen competitive binding with biotin-tagged BAD peptide.

In test [3] the target is cereblon (CRBN) (Homo sapiens, UniProt Q96SW2). The experiment in a line: CRBN-dependent Bcl-xl degradation in WI38 cells: CRBN knockout, pomalidomide competition, N-methyl negative control. Type of test: cell-based.
Test [4] has as its target T3, Bcl-2 (Homo sapiens, UniProt P10415).
T3 construct: gene BCL2; Purified recombinant His-tagged Bcl-2
Details: AlphaLISA competitive displacement of biotin-tagged BAD or BIM peptide from His-tagged Bcl-2 family protein. To be noted: inhibitor.

`CC1(C)CCC(c2ccc(Cl)cc2)=C(CN2CCN(c3ccc(C(=O)NS(=O)(=O)c4ccc(N[C@H](CCN5CCOCC5)CSc5ccccc5)c(S(=O)(=O)C(F)(F)F)c4)cc3)CC2)C1` [ABT263]: the Ki in test [1] is 8.5 nM.
For the compound `CC1(C)CCC(c2ccc(Cl)cc2)=C(CN2CCN(c3ccc(C(=O)NS(=O)(=O)c4ccc(N[C@H](CCN5CCN(C(=O)CCCn6cc(COCCOCCNc7cccc8c7C(=O)N(C7CCC(=O)NC7=O)C8=O)nn6)CC5)CSc5ccccc5)c(S(=O)(=O)C(F)(F)F)c4)cc3)CC2)C1` (some centres unmarked) [PZ, PZ15227], the Ki in test [2] was 1.9 nM; in test [1] (inhibitor), above 1000 nM; in test [4] it was 3.52 nM. Further, the “CRBN-dependent Bcl-xl degradation in WI38 cells: CRBN knockout, pomalidomide com” value in test [3] is listed as “PZ had no effect on the levels of Bcl-xl in CRBN knockout cells (Fig. 2e)”.
